Assay results as given in patent publication EP4335840A1, “NEW CONTRAST AGENTS FOR USE IN DIAGNOSTIC IMAGING” (priority 2022, dated 2024).
Read-outs that look alike come from different tables or passages of the source.

Key:
[1] = Complex stability (transmetallation with Zn2+, proton relaxometry); assay type: physicochemical; settings: 72 hours, 2.5 mM Zn2+, 26 mM phosphate buffer, 37°C, pH 7.4; 1.41 T
Description: The used method is described elsewhere (Laurent S et al., Stability of MRI paramagnetic contrast media: a proton relaxometric protocol for transmetallation assessment. Invest Radiol. 2001 Feb;36(2):115-22). In brief: A solution containing 2.5 mmol/L of test compound and 2.5 mmol/L ZnCl2 in 26 mM phosphate buffer (KH2PO4 Merck; 1.09439.1000, #HC748513, pH 7,00), was incubated at 37°C over a period of at least 3 days. If test compounds are instable under these conditions, transmetallation during this test would lead to the formation of the Zn^2+ complex of the test item, while Gd^3+ is released and precipitated as highly insoluble GdPO4.
After 3d of incubation T1 relaxation time was observed. […] Table 2: Transmetallation stability [%] of paramagnetic contrast agents over 72 hours (2.5 mM Zn2+, 26 mM phosphate buffer, 37°C, pH 7.4).

[2] = 1.5 T, 37°C, from Rohrer et al., cited from earlier work; for r1 bovine plasma: bovine plasma instead of human plasma
[3] = tested on: freshly isolated rat hepatocytes; assay: Uptake into freshly isolated rat hepatocytes; settings: rat hepatocyte uptake with OATP1B1/1B3 inhibitor Rifampicine, test item and inhibitor each 100 µM
Description: The rat hepatocytes were incubated (2.5 ·10^5 cells/well) for 2.5 to 4h in collagen coated 24-well plates (Fa. Beckton Dickinson Biocoat, cell environments, Collagen I Cellware) in Williams E-medium (Fa. Sigma W1878) in an incubator (37°C, 5% CO2 and 95% oxygen). After incubation the adherent hepatocytes were washed once with 37°C Hepes carbonate transport buffer (500 µL/well). The test items and RC1 were prepared from stock solutions (180 to 500 mM concentration) in Hepes carbonate transport buffer at pH 7.4 to reach a final concentration of 100 µmοl Gd/L. The specific uptake of the test item or RC1 into rat hepatocytes via OATP1 B1 and OATP1 B3 was challenged using a known OATP1B1/1B3 inhibitor (Rifampicine, Fa. Sigma R3501, test item and inhibitor 1:1 each 100 µM final concentration). The prepared rat hepatocyte plates were incubated with test solutions (500 µL/well) at 37°C for 10 min using a thermoshaker (Fa. Grant Bio, PHMP). Triplicates were performed for each test item. After incubating the cells were washed once with cold PBS buffer (Fa. Gibco, Dulbeccos PBS (+)). After washing the intact hepatocytes were lysed by addition of 500 µL cold 0.01 % Triton-X 100 in Millipore water for 1h. […] After 1h 500 µL of 10 nM Terbium ICP-MS standard was added in 2% nitric acid and 0.01% Triton 100 before the Gadolinium concentrations in the lysate were measured using ICP-MS (Agilent 8900, singleQuad, integr. Time 0.3 s, no gas, 5 replicates, Gd m/z 157, Tb m/z 159). As a reference standard RC1 is used in the same well plate. The hepatocyte uptake of the test compound is calculated relative to RC1 (resulting in the unit % of RC1).

[4] = Relaxivity measurements at 1.41 T in water and human plasma; assay type: physicochemical; settings: 37°C, normalized to Gd
Description: Relaxivity measurements at 1.41 T were performed using a MiniSpec mq60 spectrometer (Bruker Analytik, Karlsruhe, Germany) operating at a resonance frequency of 60 MHz and a temperature of 37°C. The T1 relaxation times were determined using the standard inversion recovery (IR) method with a fixed relaxation delay of at least 5 × T1. The variable inversion time (TI) was calculated automatically by the standard software of the MiniSpec mq60 (8 steps). The T2 measurements were performed by using a Carr-Purcell-Meiboom-Gill (CPMG) pulse sequence, applying a relaxation delay of at least 5 × T1.
Each relaxivity measurement was performed using three different Gd concentrations (3 concentrations between 0.05 and 2 mM). The T1 and T2 relaxation times of the example compounds 1 to 10 were measured in different media for example in water and human plasma. Human plasma preparation: For each experiment fresh blood was taken from a volunteer using 10 mL citrate-tubes (Sarstedt S-Monovette 02.1067.001, 10 mL, Citrate). The 10 mL citrate-tubes were carefully inverted 10 times to mix blood and anticoagulant and centrifuged for 15min at 1811 g at RT (Eppendorf, Centrifuge 5810R).
The relaxivities ri (where i=1, 2) were calculated based on the measured relaxation rates Ri in water and plasma: ri = (Ri−Ri(0))/CGd [formula] where Ri(0) represent the relaxation rate of the respective solvent and CGd the concentration of the compound normalized to the Gadolinium. The Gadolinium concentrations of the investigated solutions were verified by Inductively Coupled Plasma Mass Spectrometry (ICP-MS Agilent 7500a, Waldbronn, Germany). Table 3: Relaxivities of investigated compounds in water and human plasma at 1.41 T and relaxivities of Reference compounds 1-3 (RC1-RC3) at 1.5 T in water and bovine plasma. All values are measured at 37°C and normalized to Gd and given in L mmol-1 s-1.

OATP1B1 = biological target: T1, OATP1B1 (Homo sapiens, UniProt Q9Y6L6); assay: Uptake into stable transfected OATP1B1 HEK 293 cells; assay type: cell-based
T1 sequence (Q9Y6L6 1-691): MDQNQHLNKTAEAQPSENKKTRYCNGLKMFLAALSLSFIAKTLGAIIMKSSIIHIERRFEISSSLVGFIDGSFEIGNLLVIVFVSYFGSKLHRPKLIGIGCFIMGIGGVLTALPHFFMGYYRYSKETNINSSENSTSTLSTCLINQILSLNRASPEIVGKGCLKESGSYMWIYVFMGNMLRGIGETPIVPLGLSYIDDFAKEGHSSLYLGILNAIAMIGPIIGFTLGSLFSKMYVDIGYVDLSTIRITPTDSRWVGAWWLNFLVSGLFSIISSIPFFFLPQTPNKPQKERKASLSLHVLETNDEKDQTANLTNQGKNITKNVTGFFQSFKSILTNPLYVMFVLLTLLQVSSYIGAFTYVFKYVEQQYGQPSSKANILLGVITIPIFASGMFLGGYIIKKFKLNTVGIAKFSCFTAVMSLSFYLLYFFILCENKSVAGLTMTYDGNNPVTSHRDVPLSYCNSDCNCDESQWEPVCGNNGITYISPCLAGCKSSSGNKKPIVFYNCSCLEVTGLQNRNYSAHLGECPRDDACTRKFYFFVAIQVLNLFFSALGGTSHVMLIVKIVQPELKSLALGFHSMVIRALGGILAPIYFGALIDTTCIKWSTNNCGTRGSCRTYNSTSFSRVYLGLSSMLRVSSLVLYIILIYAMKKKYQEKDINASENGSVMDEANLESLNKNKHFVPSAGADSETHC

[5] = Water solubility in aqueous buffer; assay type: physicochemical
Description: The exploratory water solubility of the compounds is determined at room temperature (20°C) in 0.5 mL buffer solution (10 mM Tris-HCI, pH 7.4) in the microcentrifuge tubes (Eppendorf, 2.0 mL safe-lock caps). The solid compounds were added stepwise to the buffer solution. More substance is added once all the suspended material is dissolved until an equilibrium between undissolved and dissolved substance is reached. The suspension was mixed using a shaker (Heidolph Reax 2000) and treated 5 min in an ultrasound bath (Bandelin, Sonorex Super RK255H). The Gadolinium concentration of the test substance in the clear solution is measured by ICP-MS. Table 1: Solubilities of compounds in aqueous buffer at 20°C (pH 7.4).

OATP1B3 = biological target: T2, OATP1B3 (Homo sapiens, UniProt Q9NPD5); assay: Uptake into stable transfected OATP1B3 HEK 293 cells; assay type: cell-based
T2 sequence (Q9NPD5 1-702): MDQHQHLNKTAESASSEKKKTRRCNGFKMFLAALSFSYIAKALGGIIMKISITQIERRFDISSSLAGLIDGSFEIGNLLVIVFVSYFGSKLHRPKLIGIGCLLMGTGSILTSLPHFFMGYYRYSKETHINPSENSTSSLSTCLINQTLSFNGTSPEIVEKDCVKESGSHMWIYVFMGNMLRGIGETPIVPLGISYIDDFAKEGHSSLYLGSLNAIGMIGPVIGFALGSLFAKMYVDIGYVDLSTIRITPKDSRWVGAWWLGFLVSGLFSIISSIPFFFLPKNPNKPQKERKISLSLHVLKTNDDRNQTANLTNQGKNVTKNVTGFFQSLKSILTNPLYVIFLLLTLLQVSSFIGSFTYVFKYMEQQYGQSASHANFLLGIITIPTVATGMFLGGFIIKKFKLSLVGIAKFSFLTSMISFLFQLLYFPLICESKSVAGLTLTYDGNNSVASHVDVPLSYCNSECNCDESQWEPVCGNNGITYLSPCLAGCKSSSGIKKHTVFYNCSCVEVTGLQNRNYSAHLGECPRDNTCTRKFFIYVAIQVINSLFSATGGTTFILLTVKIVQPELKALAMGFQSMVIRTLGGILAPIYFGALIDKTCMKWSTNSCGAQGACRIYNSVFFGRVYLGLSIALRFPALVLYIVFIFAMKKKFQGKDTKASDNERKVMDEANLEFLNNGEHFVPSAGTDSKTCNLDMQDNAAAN

[6] = in vivo; cited from earlier work
[7] = No-observed-adverse-effect level (NOAEL), intravenous bolus; settings: mice, intravenous bolus via tail vein, dose levels up to 2.5 mmol Gd/kg bw
[8] = OATP1B1-HEK 293 cell uptake with Rifampicine
[9] = aqueous buffer 10 mM Tris-HCl, pH 7.4, 20°C, Gd by ICP-MS
[10] = OATP1B3-HEK 293 cell uptake with Rifampicine

Compound | Stability (transmetallation stability, T1 relaxation rates R1n/R10) [1] | r1 bovine plasma [2] | r1 water [2] | Inhibition Rifampicine [3] | r1 human plasma [4] | r1 water [4] | Inhibition Rifampicine (OATP1B1; [8]) | Solubility [5, 9] | Inhibition Rifampicine (OATP1B3; [10]) | secreted into the bile [6] | excreted into the bile [6] | Inhibition Rifampicine (OATP1B1) | Solubility ([5]; pH 7.4) | Inhibition Rifampicine (OATP1B3) | NOAEL [7]
O=C([O-])CN1CCN(CC(=O)[O-])CCN([C@H](CO)[C@H](O)CO)CCN(CC(=O)[O-])CC1.[Gd+3] (racemic) [RC3, gadobutrol] | stable | 5.2 L/mmol/s | 3.3 L/mmol/s | – | – | – | – | – | – | – | – | – | – | – | –
COCCOCCOCCOc1ccc(C[C@@H]2CN(CC(=O)[O-])CCN(CC(=O)[O-])CCN(CC(=O)O)CCN2CC(=O)[O-])cc1.[Gd+3] [Example 3, Gadolinium-2,2',2"-[(2R)-10-(carboxymethyl)-2-(4-(2-[2-(2-methoxyethoxy)ethoxy]ethoxy}benzyl)-1,4,7,10-tetraazacyclododecane-1,4,7-triyl]triacetate] | – | – | – | 83 % inhibition | 6.8 L/mmol/s | 5.0 L/mmol/s | 31 % inhibition | > 166 mM | 84 % inhibition | – | – | – | – | – | –
CCOCCOCCOc1ccc(C[C@H]2CN(CC(=O)[O-])CCN(CC(=O)[O-])CCN(CC(=O)O)CCN2CC(=O)[O-])cc1.[Gd+3] [Example 2, Gadolinium-2,2',2"-[(2S)-10-(carboxymethyl)-2-{4-[2-(2-ethoxyethoxy)ethoxy]benzyl}-1,4,7,10-tetraazacyclododecane-1,4,7-triyl]triacetate] | 95% | – | – | 93 % inhibition | 5.9 L/mmol/s | 4.9 L/mmol/s | 0 % inhibition | > 55 mM | 86 % inhibition | – | – | – | – | – | –
CCOCCOCCOCCOc1ccc(C[C@H]2CN(CC(=O)[O-])CCN(CC(=O)[O-])CCN(CC(=O)O)CCN2CC(=O)[O-])cc1.[Gd+3] [Example 5, Gadolinium-2,2',2"-[(2S)-10-(carboxymethyl)-2-(4-{2-[2-(2-ethoxyethoxy)ethoxy]ethoxy}benzyl)-1,4,7,10-tetraazacyclododecane-1,4,7-triyl]triacetate] | 96% | – | – | 89 % inhibition | 5.7 L/mmol/s | 5.1 L/mmol/s | 41 % inhibition | > 284 mM | 96 % inhibition | – | – | – | – | – | –
O=C([O-])CN(CCN(CC(=O)[O-])CC(=O)[O-])CCN(CC(=O)[O-])C(COCc1ccccc1)C(=O)[O-].[Gd+3].[H+].[H+] (stereo not shown) [RC2, gadobenic acid] | – | 6.3 L/mmol/s | 4.0 L/mmol/s | 79 % inhibition | – | – | – | – | – | 3-to-5% | – | – | – | – | –
CCOc1ccc(CC(CN(CCN(CC(=O)[O-])CC(=O)[O-])CC(=O)[O-])N(CC(=O)[O-])CC(=O)[O-])cc1.[Gd+3].[Na+].[Na+] (stereo not shown) [RC1, gadoxetate disodium, reference compound] | – | 6.9 L/mmol/s | 4.7 L/mmol/s | 97 % inhibition | – | – | – | – | – | – | up to 50 % of the administered dose | 81 % inhibition | > 250 mM | 99 % inhibition | –
CCOCCOc1ccc(C[C@H]2CN(CC(=O)[O-])CCN(CC(=O)[O-])CCN(CC(=O)O)CCN2CC(=O)[O-])cc1.[Gd+3] [Example 4] | – | – | – | 94 % inhibition | 6.6 L/mmol/s | 4.8 L/mmol/s | 29 % inhibition | > 738 mM | 97 % inhibition | – | – | – | – | – | 2.50 mmol Gd/kg bw
CCOCCOCCOc1ccc(C[C@H]2CN(CC(=O)[O-])CCN(CC(=O)[O-])CCN(CC(=O)O)CCN2CC(=O)[O-])nc1.[Gd+3] [Example 6, Gadolinium 2,2',2"-[(2S)-10-(carboxymethyl)-2-({5-[2-(2-ethoxyethoxy)ethoxy]pyridin-2-yl}methyl)-1,4,7,10-tetraazacyclododecane-1,4,7-triyl]triacetate] | – | – | – | 91 % inhibition | 5.9 L/mmol/s | 5.3 L/mmol/s | 2 % inhibition | – | 65 % inhibition | – | – | – | – | – | –
COCCOCCOCCOc1ccc(C[C@H]2CN(CC(=O)[O-])CCN(CC(=O)[O-])CCN(CC(=O)O)CCN2CC(=O)[O-])cc1.[Gd+3] [Example 1, Gadolinium-2,2',2"-[(2S)-10-(carboxymethyl)-2-(4-{2-[2-(2-methoxyethoxy)-ethoxy]ethoxy}benzyl)-1,4,7,10-tetraazacyclododecane-1,4,7-triyl]triacetate] | – | – | – | 90 % inhibition | 6.6 L/mmol/s | 5.1 L/mmol/s | 21 % inhibition | > 201 mM | 92 % inhibition | – | – | – | – | – | –
